As a reminder, the IC50 is the concentration that gives 50% inhibition.

This experiment has as its target Proteasome chymotrypsin-like activity (S26 protein from RPMI8226 cells) (Homo sapiens, UniProt P28074). Format: biochemical. The following applies: S26 protein from RPMI8226 cell extract 2 ug/well, substrate 20 uM, 37° C., 90 minutes; read-out: Proteasome chymotrypsin-like activity inhibition IC50. As for the experimental part:
The abilities to inhibit the proteasome activity of the compounds described in the Examples of the present invention and boronic acid drugs were evaluated as follows.
RPMI8226 cells, which is a multiple myeloma cell line, were cultured and then separated by a centrifuge, and washed twice with phosphate buffered saline (PBS). 20 mM of a tris-HCl (pH 8.0) buffer solution was added to the washed cells, and the cells were disrupted by a homogenizer and centrifuged to obtain S26 protein from the supernatant. Suc-Leu-Leu-Val-Tyr-AMC, for a fluorogenic substrate for the chymotrypsin-like activity of the proteasome, and Z-Leu-Leu-Glu-AMC, for a fluorogenic substrate for the caspase-like activity, were purchased from Calbiochem, EMD Millipore and used. Into each well of a 96-well plate (opaque, black round bottom), 20 ul of the S26 protein (final RPMI8226 cell extract concentration: 2 ug/well), 10 ul of S26 proteasome inhibitor serially diluted from 10 uM (final DMSO concentration: 0.5%), and 20 ul of the fluorogenic substrate for the proteasome chymotrypsin-like or caspase-like activity (final concentration: 20 uM) were added and mixed and allowed to react in a 37° C. incubator for 90 minutes. The fluorescence of the fluorogenic substrate was measured by FlexStation II Fluorometer (Molecular Devices). The fluorescence inhibited by the compound diluted at each concentration was measured as the relative percentage value for the amount obtained from the treatment only with the S26 protein and the fluorogenic substrate. IC50 (inhibitory concentration 50) was expressed in terms of a concentration that inhibits 50% of the maximum fluorescence induced by the fluorogenic substrate.

Molecules are shown by their SMILES. Where only a bound is given, the exact number is not on record here.

Sequence of Proteasome chymotrypsin-like activity (S26 protein from RPMI8226 cells) (P28074 60-263 limits assumed): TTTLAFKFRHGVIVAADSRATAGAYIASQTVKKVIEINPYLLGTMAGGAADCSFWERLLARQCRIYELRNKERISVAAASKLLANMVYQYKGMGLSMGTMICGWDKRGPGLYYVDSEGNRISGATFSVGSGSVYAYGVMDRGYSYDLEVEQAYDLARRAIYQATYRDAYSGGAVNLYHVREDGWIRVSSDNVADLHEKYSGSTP

Turning to `CC(C)C[C@H](NC(=O)C1CC(CNC(=O)c2ccc(C(C)(C)C)cc2)=NO1)B(O)O` (stereo partly drawn) [Example 70, ((1R)-1-(3-((4-(tert-butyl)benzamido)methyl)-4,5-dihydroisoxazol-5-carboxamido)-3-methylbutyl)boronic acid], the half-maximal inhibitory concentration (IC50) is under 100 nM. The same measure for `CC(C)C[C@H](NC(=O)C1CC(c2cccc(Oc3ccccn3)c2)=NO1)B(O)O` (stereo partly drawn) [Example 41, ((1R)-3-methyl-1-(3-(3-(pyridin-2-yloxy)phenyl)-4,5-dihydroisoxazol-5-carboxamido)butyl)boronic acid]: under 250 nM; for `CC(C)C[C@H](NC(=O)C1CC(c2ccc(-c3ccccc3)cc2)=NO1)B(O)O` (stereo partly drawn) [Example 27, ((1R)-1-(3-([1,1′-biphenyl]-4-yl)-4,5-dihydroisoxazol-5-carboxamido)-3-methylbutyl)boronic acid]: under 250 nM. With `CC(C)C[C@H](NC(=O)C1CC(c2cccc(OCc3ccccn3)c2)=NO1)B(O)O` (stereo partly drawn) [Example 43, ((1R)-3-methyl-1-(3-(3-(pyridin-2-ylmethoxy)phenyl)-4,5-dihydroisoxazol-5-carboxamido)butyl)boronic acid] the figure was under 250 nM. The same measure for `CC(=O)Nc1ccc(C2=NOC(C(=O)N[C@@H](CC(C)C)B(O)O)C2)cc1` (stereo partly drawn) [Example 16, ((1R)-1-(3-(4-acetamidophenyl)-4,5-dihydroisoxazol-5-carboxamido)-3-methylbutyl)boronic acid]: under 250 nM; for `CCC1(C(=O)N[C@@H](CC(C)C)B(O)O)CC(c2cnccn2)=NO1` (stereo partly drawn) [Example 6, ((1R)-1-(5-ethyl-3-(pyrazin-2-yl)-4,5-dihydroisoxazol-5-carboxamido)-3-methylbutyl)boronic acid]: over 1000 nM; for `CC(C)C[C@H](NC(=O)C1(Cc2ccccc2)CC(CCNC(=O)c2nccc3ccccc23)=NO1)B(O)O` (some centres unmarked) [Example 253]: under 10 nM. For the compound `COc1cccc(CC2(C(=O)N[C@@H](CC(C)C)B(O)O)CC(CNC(=O)c3c(Cl)c(C)nn3C(C)C)=NO2)c1` (stereo partly drawn) [Example 233, ((1R)-1-(3-((4-chloro-1-isopropyl-3-methyl-1H-pyrazol-5-carboxamido)methyl)-5-(3-methoxybenzyl)-4,5-dihydroisoxazol-5-carboxamido)-3-methylbutyl)boronic acid], the IC50 is under 10 nM. With `CC(C)C[C@H](NC(=O)C1(Cc2cccc(Cl)c2)CC(CNC(=O)c2cc(-c3ccccc3)nn2C(C)C)=NO1)B(O)O` (stereo partly drawn) [Example 249, ((1R)-1-(5-(3-chlorobenzyl)-3-((1-isopropyl-3-phenyl-1H-pyrazol-5-carboxamido)methyl)-4,5-dihydroisoxazol-5-carboxamido)-3-methylbutyl)boronic acid], the IC50 is under 10 nM. As to `CC(C)C[C@H](NC(=O)C1(Cc2ccccc2)CC(COc2cccc(Cl)c2)=NO1)B(O)O` (some centres unmarked) [Example 258], the IC50 is under 10 nM. As for `CC(C)C[C@H](NC(=O)[C@]1(C(C)C)CC(c2nccc3ccccc23)=NO1)B(O)O` [Example 13, ((R)-1-((R)-5-isopropyl-3-(isoquinolin-1-yl)-4,5-dihydroisoxazol-5-carboxamido)-3-methylbutyl)boronic acid], the IC50 is over 1000 nM. For `CC(C)C[C@H](NC(=O)C1(Cc2ccccc2)CC(CNCc2cc(Cl)ccc2Cl)=NO1)B(O)O` (stereo partly drawn) [Example 146, ((1R)-1-(5-benzyl-3-(((2,5-dichlorobenzyl)amino)methyl)-4,5-dihydroisoxazol-5-carboxamido)-3-methylbutyl)boronic acid], the IC50 was under 25 nM. With `Cc1cccc(CC2(C(=O)N[C@@H](CC(C)C)B(O)O)CC(CNC(=O)c3cc(C)nn3C3CCOCC3)=NO2)c1` (stereo partly drawn) [Example 251, ((1R)-3-methyl-1-(3-((3-methyl-1-(tetrahydro-2H-pyran-4-yl)-1H-pyrazol-5-carboxamido)methyl)-5-(3-methylbenzyl)-4,5-dihydroisoxazol-5-carboxamido)butyl)boronic acid] the figure was under 10 nM.

With `Cc1cc(C(=O)NCC2=NOC(Cc3ccccc3)(C(=O)N[C@@H](CC(C)C)B(O)O)C2)n(-c2ccccn2)n1` (stereo partly drawn) [Example 213, ((1R)-1-(5-benzyl-3-((3-methyl-1-(pyridin-2-yl)-1H-pyrazol-5-carboxamido)methyl)-4,5-dihydroisoxazol-5-carboxamido)-3-methylbutyl)boronic acid], the IC50 is under 10 nM.

With `CC(C)C[C@H](NC(=O)C1(Cc2ccccc2)CC(COc2ccc3ccccc3c2)=NO1)B(O)O` (some centres unmarked) [Example 262], the IC50 is under 100 nM. In the case of `Cc1cccc(C(=O)N[C@@H](CC(C)C)C2=NOC(Cc3ccccc3)(C(=O)N[C@@H](CC(C)C)B(O)O)C2)n1` (stereo partly drawn) [Example 194, ((1R)-1-(5-benzyl-3-((S)-3-methyl-1-(6-methylpicolinamido)butyl)-4,5-dihydroisoxazol-5-carboxamido)-3-methylbutyl)boronic acid], the IC50 is under 250 nM.

`CC(C)C[C@H](NC(=O)C1(Cc2ccccc2)CC(CNC(=O)c2cc(-c3ccccn3)nn2C(C)C)=NO1)B(O)O` (stereo partly drawn) [Example 221, ((1R)-1-(5-benzyl-3-((1-isopropyl-3-(pyridin-2-yl)-1H-pyrazol-5-carboxamido)methyl)-4,5-dihydroisoxazol-5-carboxamido)-3-methylbutyl)boronic acid]: the IC50 was under 10 nM. The same measure for `CC(C)C[C@H](NC(=O)C1(C)CC(c2ccccc2)=NO1)B(O)O` (stereo partly drawn) [Example 5, ((1R)-3-methyl-1-(5-methyl-3-phenyl-4,5-dihydroisoxazol-5-carboxamido)butyl)boronic acid]: over 1000 nM; for `CC(C)C[C@H](NC(=O)C1(Cc2ccc(Cl)cc2)CC(CNC(=O)c2nccc3ccccc23)=NO1)B(O)O` (stereo partly drawn) [Example 101, ((1R)-1-(5-(4-chlorobenzyl)-3-((isoquinolin-1-carboxamido)methyl)-4,5-dihydroisoxazol-5-carboxamido)-3-methylbutyl)boronic acid]: under 10 nM; for `O=C(N[C@@H](Cc1ccccc1)B(O)O)C1(Cc2ccccc2)CC(COCc2cccc(Cl)c2)=NO1` (stereo partly drawn) [Example 261, ((1R)-1-(5-benzyl-3-(((3-chlorobenzyl)oxy)methyl)-4,5-dihydroisoxazol-5-carboxamido)-2-phenylethyl)boronic acid]: under 25 nM. Consider `Cc1nocc1C(=O)NCC1=NOC(Cc2ccccc2)(C(=O)N[C@@H](CC(C)C)B(O)O)C1` (stereo partly drawn) [Example 120, ((1R)-1-(5-benzyl-3-((3-methylisoxazol-4-carboxamido)methyl)-4,5-dihydroisoxazol-5-carboxamido)-3-methylbutyl)boronic acid], for which the IC50 is under 10 nM.

On to `CC(C)C[C@H](NC(=O)C1CC(c2ccccc2OC(F)(F)F)=NO1)B(O)O` (stereo partly drawn) [Example 39, ((1R)-3-methyl-1-(3-(2-(trifluoromethoxy)phenyl)-4,5-dihydroisoxazol-5-carboxamido)butyl)boronic acid], for which the 50% inhibitory concentration (IC50) is under 500 nM. With `CC(C)C[C@H](NC(=O)C1(Cc2ccccc2)CC(CNC(=O)c2ccc(Cl)cc2)=NO1)B(O)O` (some centres unmarked) [Example 287] the figure was under 10 nM. The same measure for `CC(C)C[C@H](NC(=O)C1CC([C@@H](NC(=O)c2nccc3ccccc23)C(C)C)=NO1)B(O)O` (stereo partly drawn) [Example 67, ((1R)-1-(3-((S)-1-(isoquinolin-1-carboxamido)-2-methylpropyl)-4,5-dihydroisoxazol-5-carboxamido)-3-methylbutyl)boronic acid]: under 25 nM; for `CC(C)C[C@H](NC(=O)C1CC(C2CCCCC2)=NO1)B(O)O` (stereo partly drawn) [Example 9, ((1R)-1-(3-cyclohexyl-4,5-dihydroisoxazol-5-carboxamido)-3-methylbutyl)boronic acid]: under 500 nM. For `O=C(N[C@@H](Cc1ccccc1)B(O)O)C1(Cc2ccccc2)CC(COCc2ccccn2)=NO1` (stereo partly drawn) [Example 269, ((1R)-1-(5-benzyl-3-((pyridin-2-ylmethoxy)methyl)-4,5-dihydroisoxazol-5-carboxamido)-2-phenylethyl)boronic acid], the IC50 is under 25 nM. With `CC(C)C[C@H](NC(=O)C1(Cc2ccccc2)CC(CNC(=O)c2cccc(-c3ccccc3)c2)=NO1)B(O)O` (stereo partly drawn) [Example 95, ((1R)-1-(3-([1,1′-biphenyl]-3-carboxamidomethyl)-5-benzyl-4,5-dihydroisoxazol-5-carboxamido)-3-methylbutyl)boronic acid] the figure was under 10 nM; with `CC(C)C[C@H](NC(=O)C1(Cc2ccccc2Cl)CC(CNC(=O)c2nccc3ccccc23)=NO1)B(O)O` (stereo partly drawn) [Example 102, ((1R)-1-(5-(2-chlorobenzyl)-3-((isoquinolin-1-carboxamido)methyl)-4,5-dihydroisoxazol-5-carboxamido)-3-methylbutyl)boronic acid], under 10 nM. The same measure for `CC[C@H](NC(=O)C1(Cc2ccccc2)CC(CNC(=O)c2nccc3ccccc23)=NO1)B(O)O` (stereo partly drawn) [Example 289, ((1R)-1-(5-benzyl-3-((isoquinolin-1-carboxamido)methyl)-4,5-dihydroisoxazol-5-carboxamido)propyl)boronic acid]: under 25 nM.

(Values after patent US12570675B2, “Boronic acid compounds” (LG CHEM, LTD., priority 2020, dated 2026).)
